{
  "source": "paper PMC9046087",
  "about": "“Structural basis of tethered agonism of the adhesion GPCRs ADGRD1 and ADGRF1” (Nature, 2022)",
  "key": {"ADGRF1 [1]": {"target": "T1, ADGRF1 (Homo sapiens, UniProt Q5T601)", "T1 construct": "Flag (N); expressed in transfected cells; host or cells: HEK293F", "T1 sequence (Q5T601 20-910)": "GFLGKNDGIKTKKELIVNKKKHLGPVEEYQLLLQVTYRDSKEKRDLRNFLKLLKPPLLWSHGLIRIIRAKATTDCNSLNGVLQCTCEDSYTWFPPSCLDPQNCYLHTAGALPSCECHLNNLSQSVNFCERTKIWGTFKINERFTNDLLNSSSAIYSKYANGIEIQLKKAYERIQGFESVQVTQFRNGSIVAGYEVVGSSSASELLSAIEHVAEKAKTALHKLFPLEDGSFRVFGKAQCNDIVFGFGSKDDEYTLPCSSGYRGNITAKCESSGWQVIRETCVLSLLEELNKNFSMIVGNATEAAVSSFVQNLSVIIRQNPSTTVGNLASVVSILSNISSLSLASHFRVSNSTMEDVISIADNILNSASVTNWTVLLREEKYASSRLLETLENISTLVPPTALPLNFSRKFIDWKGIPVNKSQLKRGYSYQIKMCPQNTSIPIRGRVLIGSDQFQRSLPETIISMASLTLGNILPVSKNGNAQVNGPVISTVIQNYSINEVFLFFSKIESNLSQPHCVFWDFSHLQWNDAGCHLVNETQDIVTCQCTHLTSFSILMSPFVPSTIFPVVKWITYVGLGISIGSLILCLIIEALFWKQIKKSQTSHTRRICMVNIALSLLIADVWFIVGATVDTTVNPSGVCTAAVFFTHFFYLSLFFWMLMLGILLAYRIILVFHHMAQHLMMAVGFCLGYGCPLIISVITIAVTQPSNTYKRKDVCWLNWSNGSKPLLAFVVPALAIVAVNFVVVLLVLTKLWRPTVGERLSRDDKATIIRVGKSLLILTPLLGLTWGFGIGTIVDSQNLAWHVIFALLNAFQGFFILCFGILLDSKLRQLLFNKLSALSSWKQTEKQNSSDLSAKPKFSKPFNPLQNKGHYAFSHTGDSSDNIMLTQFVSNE", "test": "BRET assay using TRUPATH biosensors, Gs activation of ADGRF1", "assay_type": "cell-based", "settings": "Gs, ADGRF1 WT, n = 7", "procedure": "(§1) To study the synthetic stalk peptide-induced G protein activation of ADGRD1 and ADGRF1, a BRET assay using TRUPATH biosensors was conducted to measure the proximal interaction between RLuc8 fused to the Gα subunit and GFP2 fused to the Gγ subunit. The TRUPATH suite of biosensors was obtained from Addgene (Addgene kit no. 1000000163) as a gift from B. Roth, including GαsS-RLuc8, Gαi1-RLuc8, Gβ3 and Gγ9-GFP2 as previously described.\n(§2) The wild-type or mutant ADGRD1 and ADGRF1 were transiently co-transfected with plasmids encoding Gα-RLuc8 (GαsS-RLuc8 for Gs activation assay; Gαi1-RLuc8 for Gi activation assay), Gβ3 and Gγ9-GFP2 at a ratio of 2:1:1:1 (receptor plasmid, 800 ng; G protein subunit plasmids, 400 ng for each) in 2 ml HEK293F cells at a density of 1.2 × 10^6 cells per ml. Cell cultivation and receptor surface expression measurement were performed as described above. The cells were plated into 96-well white plates (40,000 cells per well) in 60 μl of assay buffer and incubated at 37 °C for 30 min. Then 10 μl of freshly prepared 50 μM coelenterazine 400a (Nanolight Technologies) was added. […] The cells were stimulated with 30 μl of synthetic stalk peptide at different concentrations and the BRET signals were monitored continuously five times. The last measurements were used in data analysis. The BRET ratios were calculated as the ratio of the GFP2 emission to RLuc8 emission."}, "ADGRF1 [2]": {"target": "T2, ADGRF1 (Homo sapiens, UniProt Q5T601, F690A)", "T2 construct": "Flag (N); expressed in transfected cells; host or cells: HEK293F", "T2 sequence (Q5T601 20-910 F690A)": "T1 sequence (Q5T601 20-910) with F671A", "test": "BRET assay using TRUPATH biosensors, Gs activation of ADGRF1", "assay_type": "cell-based", "settings": "Gs, ADGRF1 F690^ICL2A, n = 3", "procedure": "as §1, §2"}, "[3]": {"settings": "read-out: pEC50 (mean ± s.e.m.) (converted)"}},
  "note": "Substitutions are numbered along the chain they refer to. Ends that are not written are not given here.",
  "data": [
    {"sequence": "TSFSILMSPFVP [pF1]", "values": [
      {"measurement": "Emax (mean ± s.e.m.)", "setting": "ADGRF1 [1]", "value": "100 ± 9 % of WT"},
      {"measurement": "EC50", "setting": "ADGRF1 [1]; [3]", "value": 35.5, "unit": "nM"},
      {"measurement": "Emax (mean ± s.e.m.)", "setting": "ADGRF1 [2]", "value": "110 ± 12 % of WT"},
      {"measurement": "EC50", "setting": "ADGRF1 [2]; [3]", "value": 115, "unit": "nM"}
    ]}
  ]
}
